In assay [1] the test system is histamine-induced blue weal formation. As to the kind of experiment: Sparrow/Wilhelm assay: histamine-induced blue wheals. The format is in vivo, New Zealand white rabbits. The following applies: for relative intensity of blue wheals, experimental vs control: scored 30 minutes after histamine. The source says: This model relies on the principal that localized, subcutaneous injections of histamine will result in a localized increase in capillary permeability. When the test animal has been pretreated with blue dye intravenously, the localized histamine injections will elicit blue-colored wheals around the injection site. Thus, by pre-administration of an effective anti-inflammatory agent the blue color of the histamine-induced wheals will be much less pronounced, with the amount of color reduction being dependent on the relative amount and/or potency of the anti-inflammatory agent used.
Non-molting New Zealand white rabbits were used for the Sparrow/Wilhelm assay. The skin of the rabbits back was closely clipped 1-2 days previous to the experiment, but not depilated, and the rabbits were kept warm until tested. Various amounts of the protected tripeptide Ac-Lys-Pro-Val-NH2 were injected intravenously into an ear vein approximately 15 minutes prior to intravenous injection of blue dye. Control rabbits received sham injections. Fifteen minutes following injection of the agent or sham, the rabbits received approximately 30 mg/kg of Pontamine blue dye as a 2.5% solution in 0.45% saline, into an exposed vein. Immediately following dye injections, histamine was injected intradermally in a 0.10 ml volume (1.25 mg histamine 0.1 ml volume) at several sites on each side of the spine. In all, one vertical row of six injections were made on each side of the spine. The relative intensity of the resultant blue wheals were scored by an independent observer 30 minutes after histamine injection.

Assay [2] concerns carrageenan-induced swelling in rat paws. The experiment in a line: Rat paw edema test. The format is in vivo, Sprague-Dawley rats. The following applies: 100 mg/kg intraperitoneal each, hourly, after the first hour. The procedure: A second in vivo bioassay for anti-inflammatory activity was conducted in which the action of the tripeptide was compared to that of hydrocortisone. In this assay, the two agents were given at similar doses and tested for their independent ability to inhibit carrageenan-induced swelling in rat paws. This assay, the rat paw edema test, was conducted generally as it is typically performed in the art, for example, as described by Winter et al. (1962), Proc. Soc. Exp. Biol. Med., 111:544 or in U.S. Pat. No. 4,150,137. Briefly, the assay was performed as follows. Each of twenty-four male Sprague-Dawley rats was assigned to one of four groups: Tripeptide treatment and controls (matched according to body weight and initial paw volume), hydrocortisone treatment and matched controls. The volume of the right rear paw of the test and control animals was determined using standard procedures and a mercury displacement volumetric technique. […] One hour later 0.5 ml of 1% lambda carrageenan in saline solution was injected into the right rear paw of the animals and the paw volume was again recorded (baseline measure). For comparison of the effects of the two treatments, paw volume of experimental animals measured at hourly intervals was expressed as a percentage of the volume change of their respective matched controls.

Assay [3] deals with inflammation induced in the ear by picryl chloride. As to the kind of experiment: Picryl chloride-induced ear swelling. The format is in vivo, BALB/C mice. The procedure:
Female BALB/C mice (Simmons Laboratories), 7 weeks old, were housed at 23-25° C. in groups of no more than 5 per cage [28 cm (L)×18 cm (W)×13 cm (H)]. They were allowed to acclimatize to standard lighting and temperature conditions for at least 1 week, with food and water available ad lib, before the experiment began. Five to ten animals were randomly assigned to each treatment group each test day, and all experiments were repeated at least twice to confirm reproducibility. To reduce error due to slight differences in responses to the irritant of animals from different shipments, tests of each agent were performed as separate experiments in which experimental and control animals were drawn from the same shipment.
In the experiments each animal was anesthetized with 1 mg of pentobarbital sodium solution (50 mg/kg, Nembutal, Abbott Laboratories, Abbott park, Ill.). Baseline ear thickness was measured for both ears with a spring-loaded micrometer (Swiss Precision Instruments, Los Angeles, Calif.). Ear thickness was expressed in units of 10^−3 cm; the average thickness of unstimulated ears was approximately 25-30×10^−3 cm. After baseline measurements were taken, one of six solutions was injected IP. Control animals received 0.2 ml of sterile saline, and experimental animals received Ac-α-MSH (11-13)-NH2, i.e., Ac-Lys-Pro-Val-NH2), Ac[D-Lys^11] α-MSH (11-13)-NH2, Ac[D-Pro^12] α-MSH (11-13)-NH2, Ac[D-Val^13] α-MSH (11-13)-NH2 or Ac-[D-Lys^11, D-Val^13] α-MSH (11-13)-NH2 in the same volume of saline. […] The doses of the tripeptides were 10 μg ([…]), 20 μg ([…]), 40 μg (1.04×10^−7 M), and 80 μg (2.08×10^−7 M). Immediately after saline or α-MSH injection, a micropipette was used to coat both sides of each ear with 10 μl (40 μl per mouse) of a 0.5% picryl chloride (Polysciences, Warrington, Pa.) solution in acetone.
Ear thickness was remeasured 3 and 6 h after picryl chloride application. Swelling was determined by subtracting baseline thickness from the measurements for each ear at 3 and 6 h. The differences for both ears were then averaged for the final analysis.
Repeated-measure ANOVA techniques were used to determine if there was an overall difference among group data for each peptide tested in separate experiments. In those cases in which the ANOVA yielded significant results, Dunnett's test was then used to compare the effects of peptide doses with control (saline) data for each of the two time periods, 3 and 6 h.

Assay [4] deals with inflammation induced in the hind paw. The experiment in a line: Kappa carrageenan-induced hind paw inflammation, spinal cord intact or transected. The following applies: given intraperitoneally, spinal cord transection. The format is in vivo, BALB/c mice. The procedure:
Because surgical dissection of trigeminal structures that innervate the ear of the mouse is very difficult, tests to learn whether descending neural pathways are essential to the anti-inflammatory activity of centrally administered α-MSH peptides were performed in mice with inflammation induced in a hind paw. In these experiments, each animal was anesthetized with pentobarbital sodium solution as above. Baseline footpad thickness of both hind paws was measured with a spring-loaded micrometer (Swiss Precision Instruments, Los Angeles, Calif.). Paw thickness was expressed in units of 10^−3 cm; average thickness of unstimulated paws was 171.5×10^−3 cm across shipments of animals. Kappa carrageenan (Sigma) dissolved in saline (0.05%, 20 μl) was injected (28 gauge allergy test syringe) into one footpad, and saline (20 μl) was injected into the other. For the analyses, the increase in thickness of the control saline-injected paw of each animal was subtracted from that of the carrageenan-injected paw, to eliminate the influence of mechanical injury and volume of the injected fluid. To be certain that mice with severed spinal cords can react to anti-inflammatory agents, prednisolone (2.5 mg/mouse (IP injection)) was administered to 10 mice with spinal transection and inflammation induced by carrageenan. Treatment with the locally acting steroid reduced swelling up to 29% (average, relative to saline controls) at 4.5 h. after carrageenan.
However, a standardized crushing of lumbar vertebrae with a hemostat was effective in severing the cord; no deaths were caused by this treatment. […] The experiments were limited to 4.5 h to reduce problems of bowel and bladder dysfunction. Immediately after the 4.5 h measurements all mice were killed with an overdose of sodium pentobarbital.
Because of the size of the experiments and the requirement for several shipments of animals over time, several experiments were performed, each with complete treatment and control groups drawn from the same shipment of mice. Omnibus analysis of variance techniques (Dynastat, Washington, D.C.) were used to test overall differences among group means. Tukey's protected t test was used to compare individual means. Probability values of <0.05 were considered significant.

For the substance “Ac-Lys-Pro-Val-NH2 [Ac-α-MSH(11-13)-NH2, protected tripeptide]”, the “relative intensity of blue wheals, experimental vs control” value in assay [1] (0.625 ug/kg intravenously) was “No difference”; in assay [1] (1.25 ug/kg intravenously), “E lighter than C”; in assay [1] (5 ug/kg intravenously) it was “E lighter than C”; in assay [1] (10 ug/kg intravenously) it was “E lighter than C”. The “lowest intravenous dose with appreciable reduction in blue weal formation” value in assay [1] (intravenous) is listed as 1.25 ug tripeptide per kg body weight. Further, in assay [2], the “inhibition of paw edema compared with hydrocortisone” value is given as “no significant difference in the inhibition of paw edema”. The “% Inhibition of swelling” value in assay [3] (10 μg IP, 3 h) stood at 26%; in assay [3] (10 μg IP, 6 h) it was 25%; in assay [3] (20 μg IP, 3 h), 21%; in assay [3] (20 μg IP, 6 h), 19%; in assay [3] (40 μg IP, 3 h), 33%; in assay [3] (40 μg IP, 6 h), 26%. Also, the “% Inhibition of swelling” value is recorded as 50% in assay [3] (80 μg IP, 3 h) and 42% in assay [3] (80 μg IP, 6 h). Also, in assay [3] (10-80 μg IP, 3 and 6 h), the “overall effect on ear inflammation (ANOVA)” value is recorded as “inhibited acute inflammation”. Moreover, in assay [4], the “anti-inflammatory effect after spinal cord transection” value was “marked inhibitory effect on inflammation”.

These data come from US6969590B2, “Use of a polypeptide for treatment of pruritus in animals” (Zengen, Inc., priority 2001, dated 2005).
